Reference: US7241878B1, “Modified cellulose synthase gene from Arabidopsis thaliana confers herbicide resistance to plants” (U.S. Department of Energy, priority 1999, dated 2007)
pIC50: −log10 of the molar value.

Tests used:
ixr1-1 mutant = details: 12 μM; cited from earlier work
wild type Arabidopsis = details: 12 μM; cited from earlier work
[1] = system: seed germination, mitosis, respiration, photosynthesis, and lipid and RNA synthesis; details: cited from earlier work
cellulose biosynthesis = details: compared with dichlobenil, another cellulose synthesis inhibitor; cited from earlier work
[2] = system: ixr1-1 and ixr1-2 mutant plants; assay: growth analysis under isoxaben spray, ixr1 mutant plants; details: 2.0 μM isoxaben
Method: (§1) Seeds from wild-type Col and Ler, ixr1-1 and ixr1-2 homozygous mutants and F1- and F2-seeds were germinated again and treated as described using 2.0 μM isoxaben in the solution.

Brassica napus = details: in vivo; read-out: I50 for Brassica napus; cited from earlier work
[3] = system: ixr1-1-, ixr1-2- and wild-type Arabidopsis plants; assay: isoxaben-resistance pilot screen, spraying of soil-grown plants; type: in vivo, Arabidopsis thaliana; details: sprayed every 3 days from seedling stage, 1 ml/6 cm^2 soil surface, 0.025% DMSO
Method: Seeds from homozygous isoxaben-resistant mutants ixr1-1 (DH47) and ixr1-2 (DH48) (Heim et al., 1989) were obtained from the Arabidopsis Biological Resource Center, Columbus, Ohio (ABRC stock numbers CS 6201 and CS 6202). Seeds were vernalized for five days in 0.15% water agar at 6° C. prior to planting in a commercial peat-vermiculite-perlite mix (ProMix HP with a 1 cm top-layer of ProMix PGX, Premier Horticulture Inc., Red Hill, Pa., Canada). Plants were grown in the greenhouses of Carnegie Institution of Washington, Department of Plant Biology, Stanford, Calif. between July 1998 and June 1999. Seeds from self-pollinated ixr1-1 and ixr1-2 mutants were collected separately and used for further experiments.
Isoxaben (95%, N-3-[1-ethyl-1-methyl-propyl]-5-isoxazolyl-2, 6-dimethoxybenzamide) was graciously supplied by DowElanco (Indianapolis, Ind.) and was made up as a concentrated dimethylsulfoxide (DMSO) stock solution and used at concentrations ranging from 0.03 to 10.0 μM. The final concentration of DMSO was always 0.025%. Control cultures without isoxaben contained the same amount of DMSO as the isoxaben-treated cultures; no effect of DMSO was noted.

[4] = system: wild-type Col and Ler plants; assay: growth analysis under isoxaben spray, wild-type plants; details: 2.0 μM isoxaben in the spray solution
Method: as §1

[5] = system: cellulose synthesis in algae and plants; details: cited from earlier work

CC(C)(C)NC(=O)OC1SCN(c2cccc(C(F)(F)F)c2)C1=O (stereo not shown) [TZ, 5-tert-butyl-carbamoyloxy-3-(3-trifluromethyl) phenyl-4-thiazolidnone]
reduction of growth of the ixr1-1 mutant (ixr1-1 mutant): 50% | effect on wild type Arabidopsis (wild type Arabidopsis): kills

CCC(C)(CC)c1cc(NC(=O)c2c(OC)cccc2OC)on1 [isoxaben, N-3-[1-ethyl-1-methyl-propyl]-5-isoxazolyl-2,6-dimethoxybenzamide]
effect on other cellular processes [1]: unaffected | acts at lower concentrations than dichlobenil (factor) (cellulose biosynthesis): < 40 × | growth of heterozygous mutant F1-plants ([2]; heterozygous F1, compared to the homozygous mutants): clearly reduced growth | growth of homozygous mutants ([2]; homozygous ixr1-1 and ixr1-2 (ixr1-1 grew better than ixr1-2)): grew well | pIC50 (Brassica napus): 7.70 | concentration in the application solution high enough to discriminate resistant and susceptible plants [3]: 1.0 to 3.0 µM | growth of wild-type plants [4]: didn't grow at all

N#Cc1c(Cl)cccc1Cl [DCB, 2,6-dichlorobenzonitrile]
inhibition of cellulose synthesis [5]: effective and specific inhibitor
